Laboratory results taken from patent publication US11672812B2, “Methods and compositions comprising tyrosine kinase inhibitor and triptolide for the treatment of cancer” (City of Hope, priority 2020, dated 2023).

Tests used:
HCC827 cells = assay: Drug resistance assay (time to develop resistance, cell viability by cell counting); type: cell-based, human
[1] = system: EGFR-TKI resistant HCC827 lung cancer cells; assay: Tumor growth of Tagrisso-resistant HCC827 cells grafted in mice; type: in vivo
Description: (§1) HCC827 or AZD9291-resistant HCC827 cancer or PC9 NSCLC cells (5×10^6) were subcutaneously injected into NOD/SCID mice (2 months old, n=6-10 for each group). After tumor size reaches approximately 100 mm^3, the mice were administered AZD9291 individually or in combination with triptolide using ALZET osmotic pump, which was implanted under the skin of the mice for a specific time period. The tumor volume was monitored twice a week for 4-8 weeks. All protocols involving animals were approved by the Research Animal Care Committee of City of Hope, in compliance with the Public Health Service Policy of the United States.

PC9 tumor = PC9 tumor growth in grafted mice following Tagrisso resistance development; type: in vivo; conditions: for tumor volume relative to its volume prior to the treatment (100%): PC9-grafted mice after 4 weeks Tagrisso, Tagrisso 2x dosage (Group 1), combination (Group 3)
Description: as §1

HSP72 [2] = assay: HSP72 cellular expression; type: cell-based
Source text: Triptolide by itself is a potent anti-tumor agent and functions by activating tumor suppressor protein p53 and blocking tumor promotor NF-κB.

HSP72 [3] = assay: HSP72 protein level in Tagrisso-treated HCC827 cells; type: cell-based, human
Source text: The inventors sought to maintain high levels of HSP72 while sustaining cancer treatment with TKIs.

[4] = system: HCC827 cells grafted into mice; assay: Tumor growth in HCC827-grafted mice; type: in vivo
Source text: To model human EGFR mutated NSCLC, HCC827 cells were grafted into mice.
HCC827 or AZD9291-resistant HCC827 cancer or PC9 NSCLC cells (5×10^6) were subcutaneously injected into NOD/SCID mice (2 months old, n=6-10 for each group). […] The tumor volume was monitored twice a week for 4-8 weeks. All protocols involving animals were approved by the Research Animal Care Committee of City of Hope, in compliance with the Public Health Service Policy of the United States.

HCC827-grafted mice = assay: Survival rates of HCC827-grafted mice; type: in vivo; parameters: dose or concentration left out as unconfirmed; conditions: Tagrisso with or without co-administered Velcade (FIG. 3)
PC9 tumors = assay: Tumor growth in PC9-grafted mice (Velcade study); type: in vivo; conditions: same treatment setting as HCC827 study
Description: (§2) A separate experiment was completed using PC9-grafted mice in the same treatment setting as previously described.
as §1

[5] = Adverse effect observed in treated PC9-grafted mice; type: in vivo; conditions: Velcade treatment
Source text: as §2

[6] = HCC827-grafted mice, compared to untreated control (FIG. 2), Tagrisso at dose corresponding to recommended human dose, low dose of Velcade

CC(C)[C@]12O[C@H]1[C@@H]1O[C@]13[C@]1(O[C@H]1C[C@H]1C4=C(CC[C@@]13C)C(=O)OC4)[C@@H]2O [Triptolide]
time HCC827 cells maintained sensitivity to Tagrisso (HCC827 cells; Tagrisso in the presence of Triptolide, 70 day duration of the study): > 70 days | time HCC827 cells maintained sensitivity to Tarceva (resistance not observed) (HCC827 cells; Tarceva when also treated with Triptolide, 70 day duration of the study): > 70 days | sensitization of Tagrisso-resistant HCC827 to the EGFR-TKI ([1]; Tagrisso in the absence or presence of Triptolide (FIG. 5B)): sensitizes Tagrisso-resistant HCC827 cells to the EGFR-TKI | tumor volume relative to its volume prior to the treatment (100%) (PC9 tumor; Triptolide (Group 2)): 60% | duration of inhibitory effect on PC9 tumor growth (PC9 tumor; after 4 weeks Tagrisso pre-treatment, Tagrisso at 2x dosage (Group 1), Triptolide (Group 2)): at least 4 weeks | HSP72 cellular expression (HSP72 [2]): may activate HSP72 cellular expression

CC(C)C[C@H](NC(=O)[C@H](Cc1ccccc1)NC(=O)c1cnccn1)B(O)O [Velcade, Bortezomib]
HSP72 protein levels (HSP72 [3]): effectively maintains high levels of HSP72 protein | time HCC827 cells remained sensitive to Tagrisso (HCC827 cells; Tagrisso in the presence of Velcade, same concentration): > 60 days | tumor growth [4, 6]: moderately inhibited tumor growth | survival of the mice (HCC827-grafted mice): did not improve survival of the mice | PC9 tumor growth (PC9 tumors): little inhibitory effect on PC9 tumor growth | adverse effect [5]: skin inflammation after one month

C#Cc1cccc(Nc2ncnc3cc(OCCOC)c(OCCOC)cc23)c1 [Tarceva, Erlotinib]
time for HCC827 cells to develop resistance to Tarceva (HCC827 cells; Tarceva alone): about 30 days

C=CC(=O)Nc1cc(Nc2nccc(-c3cn(C)c4ccccc34)n2)c(OC)cc1N(C)CCN(C)C [Tagrisso, Osimertinib]
tumor growth [4, 6]: reduced tumor size and blocked tumor growth | tumor growth ([4]; non-resistant HCC827 cells (FIG. 5A)): tumor growth is inhibited | tumor growth ([1]; Tagrisso-resistant HCC827 grafted mice (FIG. 5A, 5B)): does not reduce tumor growth | tumor volume relative to its volume prior to the treatment (100%) (PC9 tumor; Triptolide (Group 2)): 190% | treatment time at which Tagrisso began to lose its inhibitory effect on the PC9 tumor (PC9 tumor; PC9-grafted mice, initial Tagrisso dosage): 4 weeks
